Measured values taken from ChEMBL document CHEMBL2424552, “Cytotoxic effect of novel dehydroepiandrosterone derivatives on different cancer cell lines” (2013).

Columns and labels:
Assay type in all cases: functional
SK-LU-1 = test: Growth inhibition of human SKLU1 cells at 50 uM after 48 hrs by SRB assay relative to control; conditions: SK-LU-1, 48 h, read-out: GI
PC-3 = test: Growth inhibition of human PC3 cells at 50 uM after 48 hrs by SRB assay relative to control; conditions: PC-3, 48 h, read-out: GI
MCF7 = test: Growth inhibition of human MCF7 cells at 50 uM after 48 hrs by SRB assay relative to control; conditions: MCF7, 48 h, read-out: GI

SMILES | inhibition of growth at 50 µM (SK-LU-1) [%] | inhibition of growth at 50 µM (PC-3) [%] | inhibition of growth at 50 µM (MCF7) [%]
COc1ccc(C(=O)O[C@H]2CC[C@@]3(C)C(=CC[C@@H]4[C@@H]3CC[C@]3(C)C(n5cccn5)=C(C=O)C[C@@H]43)C2)cc1 | 80 | 51.5 | 100
C[C@]12CC[C@H](OC(=O)C3CCCCC3)CC1=CC[C@@H]1[C@@H]2CC[C@]2(C)C(n3cncn3)=C(C=O)C[C@@H]12 | 24.9 | 0 | 11
C[C@]12CC[C@H](OC(=O)C3CCC3)CC1=CC[C@@H]1[C@@H]2CC[C@]2(C)C(n3cncn3)=C(C=O)C[C@@H]12 | 27 | 0 | 16.5
Cc1ccc(C(=O)O[C@H]2CC[C@@]3(C)C(=CC[C@@H]4[C@@H]3CC[C@]3(C)C(n5cncn5)=C(C=O)C[C@@H]43)C2)cc1 | 68 | 3.1 | 48.7
Cc1ccc(C(=O)O[C@H]2CC[C@@]3(C)C(=CC[C@@H]4[C@@H]3CC[C@]3(C)C(n5cccn5)=C(C=O)C[C@@H]43)C2)cc1 | 8.5 | 0 | 0
C[C@]12CC[C@H](OC(=O)c3ccc(C#N)cc3)CC1=CC[C@@H]1[C@@H]2CC[C@]2(C)C(n3cccn3)=C(C=O)C[C@@H]12 | 22.5 | 30.4 | 81.2
C[C@]12CC[C@H](OC(=O)c3ccccc3)CC1=CC[C@@H]1[C@@H]2CC[C@]2(C)C(n3cncn3)=C(C=O)C[C@@H]12 | 39.7 | 21.8 | 33.5
C[C@]12CC[C@H](O)CC1=CC[C@@H]1[C@@H]2CC[C@]2(C)C(n3cccn3)=C(C=O)C[C@@H]12 | 100 | 100 | 41.6
C[C@]12CC[C@H](OC(=O)c3ccc(Br)cc3)CC1=CC[C@@H]1[C@@H]2CC[C@]2(C)C(n3cccn3)=C(C=O)C[C@@H]12 | 17.4 | 3.7 | 18.5
C[C@]12CC[C@H](OC(=O)C3CCCC3)CC1=CC[C@@H]1[C@@H]2CC[C@]2(C)C(n3cncn3)=C(C=O)C[C@@H]12 | 0 | 23.8 | 0
COc1ccc(C(=O)O[C@H]2CC[C@@]3(C)C(=CC[C@@H]4[C@@H]3CC[C@]3(C)C(n5cncn5)=C(C=O)C[C@@H]43)C2)cc1 | 9.2 | 0 | 23
C[C@]12CC[C@H](OC(=O)c3ccc([N+](=O)[O-])cc3)CC1=CC[C@@H]1[C@@H]2CC[C@]2(C)C(n3cncn3)=C(C=O)C[C@@H]12 | 100 | 85.7 | 100
C[C@]12CC[C@H](OC(=O)c3ccc([N+](=O)[O-])cc3)CC1=CC[C@@H]1[C@@H]2CC[C@]2(C)C(n3cccn3)=C(C=O)C[C@@H]12 | 7.5 | 16.7 | 20.2
CC(=O)N1CCN(c2ccc(OCC3COC(Cn4ccnc4)(c4ccc(Cl)cc4Cl)O3)cc2)CC1 (centres undefined) [KETOCONAZOLE] | 73.4 | 88.5 | 95.2
C[C@]12CC[C@H](OC(=O)c3ccc(F)cc3)CC1=CC[C@@H]1[C@@H]2CC[C@]2(C)C(n3cccn3)=C(C=O)C[C@@H]12 | 5.5 | 20.5 | 50.7
C[C@]12CC[C@H](OC(=O)c3ccc(I)cc3)CC1=CC[C@@H]1[C@@H]2CC[C@]2(C)C(n3cccn3)=C(C=O)C[C@@H]12 | 93.5 | 58.4 | 96.8
C[C@]12CC[C@H](OC(=O)c3ccc(C(F)(F)F)cc3)CC1=CC[C@@H]1[C@@H]2CC[C@]2(C)C(n3cncn3)=C(C=O)C[C@@H]12 | 89.1 | 100 | 100
C[C@]12CC[C@H](OC(=O)c3ccc(C(F)(F)F)cc3)CC1=CC[C@@H]1[C@@H]2CC[C@]2(C)C(n3cccn3)=C(C=O)C[C@@H]12 | 73.3 | 78.2 | 0
C[C@]12CC[C@H](OC(=O)C3CC3)CC1=CC[C@@H]1[C@@H]2CC[C@]2(C)C(n3cncn3)=C(C=O)C[C@@H]12 | 100 | 88.7 | 100
C[C@]12CC[C@H](OC(=O)c3ccccc3)CC1=CC[C@@H]1[C@@H]2CC[C@]2(C)C(n3cccn3)=C(C=O)C[C@@H]12 | 5.8 | 31.4 | 32.6
C[C@]12CC[C@H](OC(=O)c3ccc(Cl)cc3)CC1=CC[C@@H]1[C@@H]2CC[C@]2(C)C(n3cccn3)=C(C=O)C[C@@H]12 | 20.7 | 24.6 | 32.4
C[C@]12CC[C@H](OC(=O)C3CCCCCC3)CC1=CC[C@@H]1[C@@H]2CC[C@]2(C)C(n3cncn3)=C(C=O)C[C@@H]12 | 94.7 | 36.8 | 78
C[C@]12CC[C@H](OC(=O)c3ccc(C#N)cc3)CC1=CC[C@@H]1[C@@H]2CC[C@]2(C)C(n3cncn3)=C(C=O)C[C@@H]12 | 89.9 | 100 | 100
